87 compounds from PubChem BioAssay AID489022 (Sanford-Burnham Center for Chemical Genomics, 2010) can be followed below.

One may read the IC50 as the concentration that inhibits the measured activity by half.

Activity calls are given as the source filed them. How the calls were made is not given here.

In this assay the test system is HEK-293T NF-kB luciferase reporter, luminescence counterscreen. The assay is described as follows: inhibitors of NF-kB luciferase reporter, HEK-293T, dose response, counter-screen for BCR NF-kB inhibitor project, luminescence, B-cell screen hits (AID 489022). Background: Reporter assays use an easily measured gene product as a stand-in for the process of interest.
For `Cc1csc(NC(=O)/C=C/c2ccc3c(c2)OCO3)n1`, the IC50 was > 80 µM (inactive). Turning to `Cc1ccc(/C=C2\SC(=S)N(CCCC(=O)Nc3cccnc3)C2=O)cc1`, the IC50 was 51.8 µM (inactive). The result for `Cc1ccc(C(=O)N2CCCC(c3ccc(Cl)cc3)=N2)cc1` reads 36.5 µM (inactive); that for `O=C(Oc1cccc(/C=N/Nc2nc(N3CCOCC3)nc(N3CCOCC3)n2)c1)c1ccco1`, > 80 µM (inactive). Regarding `COc1ccc(OC)c(NC(=O)c2[nH]c(C)c(C(C)=O)c2C)c1`, the IC50 is > 80 µM (inactive). Next, `Cn1c(=O)cc(OCCCC(=O)NC2CCCC2)c2ccccc21`: 46 µM (inactive). The result for `COC(=O)CSc1nnc(-c2sc3ccccc3c2Cl)o1` reads 7.24 µM.

For `CC1(C)CC2CC(C)(CN2S(=O)(=O)c2ccc(C(=O)Nc3ccc(S(=O)(=O)N4CCOCC4)cc3)cc2)C1` (configuration not stated), the IC50 is 0.68 µM.

Turning to `O=C(CN1C(=O)c2ccccc2S1(=O)=O)c1ccc(Cl)cc1Cl`, the IC50 was 17.9 µM. For `COc1ccc(/C=C2/SC(=S)N(CCCC(=O)Nc3ccc(O)cc3)C2=O)cc1OC`, the IC50 was > 80 µM (inactive).

Regarding `Cc1c(CC(=O)NCCCC(=O)O)c(=O)oc2cc3c(cc12)CCC(C)(C)O3`, the IC50 was 3.39 µM. `Cn1c(=NC(=O)CCl)sc2ccccc21`: the IC50 is 21.6 µM (inactive).

In the case of `O=c1c(C=NCCCO)c(-c2ccccc2)[nH]n1-c1nc2ccccc2s1`, the IC50 was > 80 µM (inactive). Regarding `Cc1ccc(S(=O)(=O)N2CCCCC2CCNC(=O)C(=O)NCc2ccncc2)cc1` (configuration not stated), the IC50 is 38.4 µM (inactive). The result for `O=C(Nc1nc2c(Br)cc(Br)cc2c(=O)s1)c1ccco1` reads > 80 µM (inactive). As for `CC(C)(C)c1ccc(-c2noc(CCC(=O)N3CCOCC3)n2)cc1`, the IC50 is 35 µM (inactive). For the compound `CCOC(=O)c1sc(NC(=O)c2cc(-c3ccccc3C)nc3ccccc23)c(C#N)c1C`, the IC50 was 0.29 µM. Regarding `CCN(CC)CCCN=Cc1c(-c2ccccc2)[nH]n(-c2nc3ccccc3s2)c1=O`, the IC50 was > 80 µM (inactive). As for `CN(C)S(=O)(=O)c1ccc(NC(=O)N2CCN(c3ccccc3)CC2)cc1`, the IC50 is > 80 µM (inactive). Take `O=C(Nc1nc2nc(-c3ccccc3)cc(-c3ccccc3)n2n1)c1ccco1`: the IC50 is 23.5 µM (inactive).

With `Cn1c(=O)cc(OCCCC(=O)NCc2ccccn2)c2ccccc21`, the IC50 was > 80 µM (inactive).

In the case of `CCn1c(=O)cc(SCC(=O)N2CCN(C)CC2)c2ccccc21`, the IC50 is > 80 µM (inactive). With `Cc1ccc(/C=C2\SC(=S)N(CCC(=O)NNC(=O)c3ccncc3)C2=O)cc1`, the IC50 is > 80 µM (inactive). Next, `Cn1c(=O)n(C)c2cc(NS(=O)(=O)c3ccccc3)ccc21`: 59.3 µM (inactive). As to `COc1cc(OC)c(/C=N/NC(N)=S)cc1Br`, the IC50 was > 80 µM (inactive). For the compound `Cc1nc2cc(-c3cccc(F)c3)nn2c(C)c1CCC(=O)NC(C)CCc1ccco1` (configuration not stated), the 50% inhibitory concentration (IC50) was 11.4 µM.

In the case of `Cc1[nH]c2ccccc2c1/C=N/Nc1nc(Nc2ccc(F)cc2)nc(N2CCOCC2)n1`, the IC50 is > 80 µM (inactive). For the compound `CCOC(=O)N1CCN(CC(=O)Nc2ccc([N+](=O)[O-])cc2C(=O)Nc2ccccc2F)CC1`, the IC50 is 29.4 µM (inactive). The result for `CCN(CC)C(=O)c1ccc(S(=O)(=O)Cc2ccc(C)cc2)c([N+](=O)[O-])c1` reads 34.7 µM (inactive); that for `CC1=CC(C)(C)Nc2ccc(OC(=O)C(Cc3ccccc3)N3C(=O)c4ccccc4C3=O)cc21` (configuration not stated), > 80 µM (inactive).

`CC(C)(C)c1ccc(-n2ncc3c2CCCC3NC(=O)C2(C(N)=O)CC2)cc1` (configuration not stated): the IC50 is 0.34 µM. Consider `COc1ccc(-c2noc(N3CCC(C(=O)Nc4ccc(OC)c(OC)c4)CC3)n2)cc1`, for which the IC50 is > 80 µM (inactive). The result for `COc1ccc(OC)c(C2CC(=O)Nc3cc(OC)c(OC)c(OC)c32)c1` (configuration not stated) reads > 80 µM (inactive); that for `O=C(O)COc1ccc(-c2nccc(-c3ccccn3)n2)cc1`, 13.3 µM; that for `COc1ccc(C(C(=O)NC2CCCCC2)N(C(=O)CCl)c2ccc(Cl)cc2)cc1` (configuration not stated), 25.1 µM (inactive). Next, `N=c1ccn2c(n1)O[C@H]1[C@H](O)[C@@H](CO)O[C@H]12`: > 80 µM (inactive); `CC1Cc2ccccc2N1S(=O)(=O)c1cnc(Cl)c(Br)c1` (configuration not stated): 41.6 µM (inactive); `CC(C)(C)c1ccc(-c2noc(CCC(=O)Nc3cccnc3)n2)cc1`: 0.55 µM. Regarding `Cc1ccc(NC(=O)O/N=C/c2c(C)nn(C(C)(C)C)c2C)cc1Cl`, the IC50 is less than 0.16 µM. Next, `COc1cc(Br)c(C(=O)c2nccc3cc(OC)c(OC)cc23)cc1OC`: 27.5 µM (inactive); `Cn1c(=O)c2c(SCC(=O)Nc3ccccc3F)nc(-c3ccccc3F)nc2n(C)c1=O`: > 80 µM (inactive); `CCCCCOc1ccc(NC(=O)C(=O)NCCCn2ccnc2)cc1`: 42.8 µM (inactive).

Consider `CCN1C(=O)c2cccc3c(S(=O)(=O)N4CCC(C)CC4)ccc1c23`, for which the IC50 was 17.5 µM. Consider `CC1Cc2ccccc2N1S(=O)(=O)c1cnc(Cl)c(Cl)c1` (configuration not stated), for which the IC50 was 77.8 µM (inactive). `Cc1ccoc1C(=O)Nc1ccc(CC(=O)O)cc1`: the IC50 was 14.2 µM. For `Cc1ccc(C2(c3ccc(C)cc3)CC2C(=O)Nc2ccc([N+](=O)[O-])cc2O)cc1` (configuration not stated), the IC50 is 4.59 µM.

`CCn1c(=O)c2cc(C(=O)NC(C)C)sc2c2ccccc21`: the IC50 was > 80 µM (inactive). The result for `CC(C)(C)c1ccc(-c2nnc(SCC(=O)NC3CC3)o2)cc1` reads 63.1 µM (inactive); that for `O=C(CN1C(=O)c2ccccc2S1(=O)=O)N1CCc2ccccc21`, 0.897 µM; that for `CCn1c(CN2CCN(c3ccc(Cl)cc3)CC2)nc2ccccc21`, 9.25 µM. With `CCN(CC)S(=O)(=O)c1ccc(N2CCOCC2)c(NC(=O)c2[nH]c(C)c(C(C)=O)c2C)c1`, the IC50 is 5.92 µM. On to `O=C(CCCN1C(=O)/C(=C/c2ccccc2Cl)SC1=S)NNC(=O)c1ccccc1`, for which the IC50 is 21.8 µM (inactive). Take `COc1ccccc1/C=C1\SC(=S)N(CCC(=O)Nc2cc(C)on2)C1=O`: the IC50 was > 80 µM (inactive). The result for `O=C(C1CCC1)N1CCN(S(=O)(=O)c2ccc([N+](=O)[O-])cc2)CC1` reads > 80 µM (inactive); that for `CCc1ccc(/C=C2\SC(=S)N(CCC(=O)Nc3cc(C)on3)C2=O)cc1`, > 80 µM (inactive). On to `CCNc1nc(C)c2cc(Br)c(=O)n(CC)c2n1`, for which the IC50 was > 80 µM (inactive). Next, `O=C1NC[C@H](c2ccccc2)OC(=O)[C@@H](Cc2ccc(F)cc2)C/C=C\C[C@H]1CC(=O)N(CCO)Cc1ccccc1`: 16.9 µM; `CCN(CC(=O)Nc1c(F)cccc1F)C(=O)c1cc([N+](=O)[O-])ccc1N1CCCCC1`: > 80 µM (inactive); `COc1ccc(C(=O)n2nc(-c3ccc(Cl)cc3)nc2N)cc1OC`: > 80 µM (inactive). Consider `COc1ccc(-c2ccoc2)cc1[C@H]1[C@H]2C=CC[C@@H](C)[C@@H]2C(=O)N1Cc1ccccc1`, for which the IC50 is 10.5 µM. As for `CCOC(=O)Cc1ccc(NC(=O)c2ccc(C(C)(C)C)cc2)cc1`, the IC50 was 1.04 µM. The result for `COc1ccc(-n2nnnc2S(=O)(=O)CC(=O)N2CCCCC2)cc1` reads 16.9 µM; that for `Fc1ccc(C2=Nn3c(nnc3-c3n[nH]c4c3CCC4)SC2)cc1`, 16.7 µM; that for `COC(=O)c1c(-c2ccc(N(C)C)cc2)sc2ccc(OC)cc12`, > 80 µM (inactive).

Turning to `COc1cc(-c2nc3n(n2)C(c2ccc(F)cc2)C2=C(CCCC2=O)N3)cc(OC)c1OC` (configuration not stated), the IC50 was 30.4 µM (inactive).

As to `CCOc1ccc(-c2nnc(SCC(=O)Nc3cc(C)on3)o2)cc1`, the IC50 was > 80 µM (inactive).

Consider `CCN(C(=O)CN1C(=O)NC(c2ccccc2)(c2ccc(C)c(C)c2)C1=O)C1CCCCC1` (configuration not stated), for which the IC50 was 26.6 µM (inactive). On to `Cc1cc(C)c2nc(NC(=O)C3CSC4(C)CCC(=O)N34)sc2c1` (configuration not stated), for which the IC50 was > 80 µM (inactive). As to `COc1ccccc1/C=C1\SC(=S)N(CCC(=O)Nc2cccc(O)c2)C1=O`, the IC50 is > 80 µM (inactive). `CNC(=O)CCc1nc(-c2ccc(C(C)(C)C)cc2)no1`: the IC50 is 56.4 µM (inactive). With `Cc1[nH]c2ccccc2c1/C=N/Nc1nc(Nc2ccccc2)nc(N2CCOCC2)n1`, the IC50 was > 80 µM (inactive). Consider `Cc1cc(N(C)C)ccc1N=Nc1ccc(N)cc1`, for which the IC50 was 64.3 µM (inactive). `COc1ccc(-n2c(-c3ccc(Br)cc3)c[n+]3c2CCc2ccccc2-3)cc1`: the IC50 was 3.96 µM. Consider `O=C(CCCc1nc(-c2ccccc2Cl)no1)NC1CCCC1`, for which the IC50 is 27.1 µM (inactive). In the case of `Cc1cc(OCC(=O)N2CCC(C(N)=O)CC2)c2c3c(c(=O)oc2c1)CCCC3`, the IC50 was > 80 µM (inactive). On to `Cc1cc(C)cc(NC(=O)Nc2ccc(NC(=O)c3ccccc3O)cc2)c1`, for which the IC50 is > 80 µM (inactive). In the case of `CCC(=O)N1c2ccccc2C(N(C(C)=O)c2ccccc2)CC1C` (configuration not stated), the IC50 is > 80 µM (inactive). Take `CSC1CCCCC1(O)CSc1nc2c(cc1C#N)CCCC2` (configuration not stated): the IC50 is > 80 µM (inactive).

Consider `CCN1C(=O)c2cccc3c(S(=O)(=O)Nc4ccccc4)ccc1c23`, for which the IC50 is 18.7 µM. On to `Cc1ccc2nc(NC(=O)CSCC(=O)OCC(=O)c3ccc(Br)cc3)sc2c1`, for which the IC50 is 1.82 µM. Consider `CCOC(=O)N1CCN(c2ncnc3c2[nH]c2ccc(OC)cc23)CC1`, for which the IC50 is 20.1 µM (inactive).

With `Cc1c(CCC(=O)N2CCC[C@H]2C(=O)O)c(=O)oc2cc3oc4c(c3cc12)CCCC4`, the IC50 is 8.43 µM. Turning to `N=c1c(C(=O)NC2CCCC2)cc2c(=O)n3ccccc3nc2n1CCN1CCOCC1`, the IC50 is > 80 µM (inactive). For the compound `CCn1c(=O)cc(SCC(=O)N2CCCCC2)c2ccccc21`, the IC50 is > 80 µM (inactive). Consider `CC(C)(C)c1ccc(-c2noc(CCC(=O)NCC3CCCO3)n2)cc1` (configuration not stated), for which the IC50 is 1.22 µM. In the case of `CC1CCN(C(=O)CCCOc2cc(=O)n(C)c3ccccc23)CC1`, the IC50 was > 80 µM (inactive). Turning to `Cc1c(CCO)c(=O)oc2n[nH]c(-c3ccccc3)c12`, the IC50 was > 80 µM (inactive).
